From ChEMBL document CHEMBL5390310, “Rapid PROTAC Discovery Platform: Nanomole-Scale Array Synthesis and Direct Screening of Reaction Mixtures” (ACS Med Chem Lett, 2023) come the findings set out here.

The target of test [1] is T1, von Hippel-Lindau disease tumor suppressor/Bromodomain-containing protein 4 (Homo sapiens, UniProt O60885+P40337). The test is described as follows: Protac activity at VHL E3 ligase/BRD4 in HEK293 cells assessed as BRD4 degradation by HiBiT assay. The class given is cell-based. For orientation: The HiBiT peptide binds its large partner to form an active luciferase.
For test [2], the target named is T1, von Hippel-Lindau disease tumor suppressor/Bromodomain-containing protein 4. The test is described as follows: Protac activity at VHL E3 ligase/BRD4 in HEK293 cells assessed as degradation maximum by HiBiT assay relative to control. Format: cell-based.

T1 sequence (P40337 whole entry, looked up, other chains not shown): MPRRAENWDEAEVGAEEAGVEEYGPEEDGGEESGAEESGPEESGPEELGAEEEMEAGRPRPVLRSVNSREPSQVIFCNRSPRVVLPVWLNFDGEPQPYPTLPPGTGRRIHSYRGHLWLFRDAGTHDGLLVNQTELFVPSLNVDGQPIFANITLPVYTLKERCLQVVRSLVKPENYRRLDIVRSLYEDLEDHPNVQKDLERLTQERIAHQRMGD

`Cc1sc2c(c1C)C(c1ccc(Cl)cc1)=N[C@@H](CC(=O)N1CCN(CC#Cc3ccc4c(c3)CN(C3CCC(=O)NC3=O)C4=O)CC1)c1nnc(C)n1-2` (stereo in doubt): in test [1], the pDC50 is reported as 8.

With `Cc1sc2c(c1C)C(c1ccc(Cl)cc1)=N[C@@H](CC(=O)N1CCN(CCCC3CCN(c4ccc5c(c4)CN(C4CCC(=O)NC4=O)C5=O)CC3)CC1)c1nnc(C)n1-2` (stereo in doubt), in test [1], the pDC50 worked out at 8.8.

By Emax is commonly meant the size of the effect at its maximum, as opposed to the concentration needed. As for `Cc1sc2c(c1C)C(c1ccc(Cl)cc1)=N[C@@H](CC(=O)N1CCC3(CCN(CC4CCN(c5ccc6c(c5)CN(C5CCC(=O)NC5=O)C6=O)CC4)CC3)CC1)c1nnc(C)n1-2` (stereo in doubt) [listing 1 of 2 here], the Emax in test [2] worked out at 99%.

As for `Cc1sc2c(c1C)C(c1ccc(Cl)cc1)=N[C@@H](CC(=O)N1CCC(CCN3CCC4(CC3)CCN(c3ccc5c(c3)CN(C3CCC(=O)NC3=O)C5=O)CC4)CC1)c1nnc(C)n1-2` (stereo in doubt) [listing 1 of 2 here], the pDC50 in test [1] was determined as 9.

With `Cc1ncsc1-c1ccc(CNC(=O)[C@@H]2C[C@@H](O)CN2C(=O)[C@@H](NC(=O)CCCCCCNC(=O)C[C@@H]2N=C(c3ccc(Cl)cc3)c3c(sc(C)c3C)-n3c(C)nnc32)C(C)(C)C)cc1` (stereo in doubt; 7P) [listing 1 of 2 here], the pDC50 in test [1] was found to be 6.8.

For the molecule `Cc1sc2c(c1C)C(c1ccc(Cl)cc1)=N[C@@H](CC(=O)NCCCCCC(=O)NCCCC#Cc1cccc3c1CN(C1CCC(=O)NC1=O)C3=O)c1nnc(C)n1-2` (stereo in doubt; 9P) [listing 1 of 2 here], the pDC50 in test [1] stood at 7.4.

For `Cc1sc2c(c1C)C(c1ccc(Cl)cc1)=N[C@@H](CC(=O)N1CCC(CCN3CCC4(CC3)CCN(c3ccc5c(c3)CN(C3CCC(=O)NC3=O)C5=O)CC4)CC1)c1nnc(C)n1-2` (stereo in doubt; 2P) [listing 1 of 2 here], the Emax in test [2] is 90%.

For `Cc1sc2c(c1C)C(c1ccc(Cl)cc1)=N[C@@H](CC(=O)N1CCN(CCC3CCN(c4ccc5c(c4)CN(C4CCC(=O)NC4=O)C5=O)CC3)CC1)c1nnc(C)n1-2` (stereo in doubt) [listing 1 of 2 here], in test [1], the pDC50 amounted to 8.8.

For `Cc1sc2c(c1C)C(c1ccc(Cl)cc1)=N[C@@H](CC(=O)NCCCCCC(=O)N1CCN(CCCC3CCN(c4ccc5c(c4)CN(C4CCC(=O)NC4=O)C5=O)CC3)CC1)c1nnc(C)n1-2` (stereo in doubt) [listing 1 of 2 here], in test [2], the Emax amounted to 100%.

`Cc1sc2c(c1C)C(c1ccc(Cl)cc1)=N[C@@H](CC(=O)N1CCN(CC#Cc3ccc4c(c3)CN(C3CCC(=O)NC3=O)C4=O)CC1)c1nnc(C)n1-2` (stereo in doubt; 4P) [listing 1 of 2 here]: the pDC50 in test [1] is given as 8.5.

Regarding `Cc1sc2c(c1C)C(c1ccc(Cl)cc1)=N[C@@H](CC(=O)NCCCCCC(=O)NCCCC#Cc1cccc3c1CN(C1CCC(=O)NC1=O)C3=O)c1nnc(C)n1-2` (stereo in doubt; 9P) [listing 2 of 2 here], the Emax in test [2] was 83%.

For `Cc1sc2c(c1C)C(c1ccc(Cl)cc1)=N[C@@H](CC(=O)N1CCN(CCC3CCN(c4ccc5c(c4)CN(C4CCC(=O)NC4=O)C5=O)CC3)CC1)c1nnc(C)n1-2` (stereo in doubt) [listing 2 of 2 here], the Emax in test [2] was found to be 99%.

`Cc1sc2c(c1C)C(c1ccc(Cl)cc1)=N[C@@H](CC(=O)N1CCN(CCC3CCN(c4ccc5c(c4)CN(C4CCC(=O)NC4=O)C5=O)CC3)CC1)c1nnc(C)n1-2` (stereo in doubt; 6P) [listing 1 of 2 here]: the maximal effect (Emax) in test [2] came out at 79%.

On to `Cc1sc2c(c1C)C(c1ccc(Cl)cc1)=N[C@@H](CC(=O)NCCCCCC(=O)N1CCN(CCCC3CCN(c4ccc5c(c4)CN(C4CCC(=O)NC4=O)C5=O)CC3)CC1)c1nnc(C)n1-2` (stereo in doubt; 10P) [listing 1 of 2 here], for which the pDC50 in test [1] was 9.8.

Take `Cc1sc2c(c1C)C(c1ccc(Cl)cc1)=N[C@@H](CC(=O)NCCCCCC(=O)N1CCN(CCCC3CCN(c4ccc5c(c4)CN(C4CCC(=O)NC4=O)C5=O)CC3)CC1)c1nnc(C)n1-2` (stereo in doubt) [listing 2 of 2 here]: in test [1], the pDC50 is 9.3.

For `Cc1ncsc1-c1ccc(CNC(=O)[C@@H]2C[C@@H](O)CN2C(=O)[C@@H](NC(=O)CCCCCCNC(=O)C[C@@H]2N=C(c3ccc(Cl)cc3)c3c(sc(C)c3C)-n3c(C)nnc32)C(C)(C)C)cc1` (stereo in doubt; 7P) [listing 2 of 2 here], in test [2], the Emax was 94%.

`Cc1sc2c(c1C)C(c1ccc(Cl)cc1)=N[C@@H](CC(=O)N1CCN(CCCC3CCN(c4ccc5c(c4)CN(C4CCC(=O)NC4=O)C5=O)CC3)CC1)c1nnc(C)n1-2` (stereo in doubt; 11P) [listing 1 of 2 here]: the Emax in test [2] was determined as 99%.

Turning to `Cc1sc2c(c1C)C(c1ccc(Cl)cc1)=N[C@@H](CC(=O)N1CCN(CC#Cc3ccc4c(c3)CN(C3CCC(=O)NC3=O)C4=O)CC1)c1nnc(C)n1-2` (stereo in doubt; 4P) [listing 2 of 2 here], the maximal effect (Emax) in test [2] is 91%.

With `Cc1sc2c(c1C)C(c1ccc(Cl)cc1)=N[C@@H](CC(=O)N1CCC3(CC1)CCN(c1ccc4c(c1)CN(C1CCC(=O)NC1=O)C4=O)CC3)c1nnc(C)n1-2` (stereo in doubt; 5P), the pDC50 in test [1] is reported as 8.6.

In the case of `Cc1sc2c(c1C)C(c1ccc(Cl)cc1)=N[C@@H](CC(=O)NCCCCCC(=O)N1CCN(CCCC3CCN(c4ccc5c(c4)CN(C4CCC(=O)NC4=O)C5=O)CC3)CC1)c1nnc(C)n1-2` (stereo in doubt; 10P) [listing 2 of 2 here], in test [2], the Emax is 99%.

For `Cc1ncsc1-c1ccc(CNC(=O)[C@@H]2C[C@@H](O)CN2C(=O)[C@@H](NC(=O)CN2CCN(C(=O)CCCCCNC(=O)C[C@@H]3N=C(c4ccc(Cl)cc4)c4c(sc(C)c4C)-n4c(C)nnc43)CC2)C(C)(C)C)cc1` (stereo in doubt) [listing 1 of 2 here], in test [1], the pDC50 is recorded as 6.3.

Consider `Cc1ncsc1-c1ccc(CNC(=O)[C@@H]2C[C@@H](O)CN2C(=O)[C@@H](NC(=O)CCCCCCNC(=O)C[C@@H]2N=C(c3ccc(Cl)cc3)c3c(sc(C)c3C)-n3c(C)nnc32)C(C)(C)C)cc1` (stereo in doubt) [listing 1 of 2 here], for which the pDC50 in test [1] was 6.9.

On to `Cc1sc2c(c1C)C(c1ccc(Cl)cc1)=N[C@@H](CC(=O)N1CCC3(CC1)CCN(c1ccc4c(c1)CN(C1CCC(=O)NC1=O)C4=O)CC3)c1nnc(C)n1-2` (stereo in doubt) [listing 1 of 2 here], for which the Emax in test [2] worked out at 100%.

`Cc1sc2c(c1C)C(c1ccc(Cl)cc1)=N[C@@H](CC(=O)NCCCCCC(=O)NCCCC#Cc1cccc3c1CN(C1CCC(=O)NC1=O)C3=O)c1nnc(C)n1-2` (stereo in doubt) [listing 1 of 2 here]: in test [2], the maximum response (Emax) is 93%.

With `Cc1sc2c(c1C)C(c1ccc(Cl)cc1)=N[C@@H](CC(=O)N1CCC3(CCN(CC4CCN(c5ccc6c(c5)CN(C5CCC(=O)NC5=O)C6=O)CC4)CC3)CC1)c1nnc(C)n1-2` (stereo in doubt) [listing 2 of 2 here], the pDC50 in test [1] amounted to 9.2.

Consider `Cc1sc2c(c1C)C(c1ccc(Cl)cc1)=N[C@@H](CC(=O)N1CCN(CC3CCN(c4ccc5c(c4)CN(C4CCC(=O)NC4=O)C5=O)CC3)CC1)c1nnc(C)n1-2` (stereo in doubt; 1P) [listing 1 of 2 here], for which the Emax in test [2] was found to be 89%.

Turning to `Cc1sc2c(c1C)C(c1ccc(Cl)cc1)=N[C@@H](CC(=O)N1CCC3(CC1)CCN(c1ccc4c(c1)CN(C1CCC(=O)NC1=O)C4=O)CC3)c1nnc(C)n1-2` (stereo in doubt) [listing 2 of 2 here], in test [1], the pDC50 turned out to be 8.8.

Regarding `Cc1sc2c(c1C)C(c1ccc(Cl)cc1)=N[C@@H](CC(=O)N1CCN(CC3CCN(c4ccc5c(c4)CN(C4CCC(=O)NC4=O)C5=O)CC3)CC1)c1nnc(C)n1-2` (stereo in doubt) [listing 1 of 2 here], in test [1], the pDC50 is recorded as 9.1.

For the molecule `Cc1ncsc1-c1ccc(CNC(=O)[C@@H]2C[C@@H](O)CN2C(=O)[C@@H](NC(=O)CN2CCN(C(=O)CCCCCNC(=O)C[C@@H]3N=C(c4ccc(Cl)cc4)c4c(sc(C)c4C)-n4c(C)nnc43)CC2)C(C)(C)C)cc1` (stereo in doubt; 8P) [listing 1 of 2 here], the pDC50 in test [1] was 6.2.

As to `Cc1sc2c(c1C)C(c1ccc(Cl)cc1)=N[C@@H](CC(=O)N1CCN(CCC3CCN(c4ccc5c(c4)CN(C4CCC(=O)NC4=O)C5=O)CC3)CC1)c1nnc(C)n1-2` (stereo in doubt; 6P) [listing 2 of 2 here], the pDC50 in test [1] is recorded as 9.4.

As to `Cc1ncsc1-c1ccc(CNC(=O)[C@@H]2C[C@@H](O)CN2C(=O)[C@@H](NC(=O)CCCCCCNC(=O)C[C@@H]2N=C(c3ccc(Cl)cc3)c3c(sc(C)c3C)-n3c(C)nnc32)C(C)(C)C)cc1` (stereo in doubt) [listing 2 of 2 here], the Emax in test [2] was 96%.

As for `Cc1sc2c(c1C)C(c1ccc(Cl)cc1)=N[C@@H](CC(=O)NCCCCCC(=O)NCCCC#Cc1cccc3c1CN(C1CCC(=O)NC1=O)C3=O)c1nnc(C)n1-2` (stereo in doubt) [listing 2 of 2 here], the pDC50 in test [1] was found to be 7.3.

Consider `Cc1sc2c(c1C)C(c1ccc(Cl)cc1)=N[C@@H](CC(=O)N1CCC(CCN3CCC4(CC3)CCN(c3ccc5c(c3)CN(C3CCC(=O)NC3=O)C5=O)CC4)CC1)c1nnc(C)n1-2` (stereo in doubt) [listing 2 of 2 here], for which the Emax in test [2] worked out at 100%.

As to `Cc1sc2c(c1C)C(c1ccc(Cl)cc1)=N[C@@H](CC(=O)N1CCN(CCCC3CCN(c4ccc5c(c4)CN(C4CCC(=O)NC4=O)C5=O)CC3)CC1)c1nnc(C)n1-2` (stereo in doubt; 11P) [listing 2 of 2 here], the pDC50 in test [1] stood at 9.7.

Consider `Cc1ncsc1-c1ccc(CNC(=O)[C@@H]2C[C@@H](O)CN2C(=O)[C@@H](NC(=O)CN2CCN(C(=O)CCCCCNC(=O)C[C@@H]3N=C(c4ccc(Cl)cc4)c4c(sc(C)c4C)-n4c(C)nnc43)CC2)C(C)(C)C)cc1` (stereo in doubt) [listing 2 of 2 here], for which, in test [2], the Emax came out at 101%.

In the case of `Cc1sc2c(c1C)C(c1ccc(Cl)cc1)=N[C@@H](CC(=O)N1CCN(CC3CCN(c4ccc5c(c4)CN(C4CCC(=O)NC4=O)C5=O)CC3)CC1)c1nnc(C)n1-2` (stereo in doubt; 1P) [listing 2 of 2 here], the pDC50 in test [1] is on record as 9.7.

`Cc1sc2c(c1C)C(c1ccc(Cl)cc1)=N[C@@H](CC(=O)N1CCC(CCN3CCC4(CC3)CCN(c3ccc5c(c3)CN(C3CCC(=O)NC3=O)C5=O)CC4)CC1)c1nnc(C)n1-2` (stereo in doubt; 2P) [listing 2 of 2 here]: the pDC50 in test [1] is reported as 9.2.

In the case of `Cc1ncsc1-c1ccc(CNC(=O)[C@@H]2C[C@@H](O)CN2C(=O)[C@@H](NC(=O)CN2CCN(C(=O)CCCCCNC(=O)C[C@@H]3N=C(c4ccc(Cl)cc4)c4c(sc(C)c4C)-n4c(C)nnc43)CC2)C(C)(C)C)cc1` (stereo in doubt; 8P) [listing 2 of 2 here], in test [2], the maximal effect (Emax) is 80%.

For `Cc1sc2c(c1C)C(c1ccc(Cl)cc1)=N[C@@H](CC(=O)N1CCN(CC3CCN(c4ccc5c(c4)CN(C4CCC(=O)NC4=O)C5=O)CC3)CC1)c1nnc(C)n1-2` (stereo in doubt) [listing 2 of 2 here], the maximum response (Emax) in test [2] was 100%.

Turning to `Cc1sc2c(c1C)C(c1ccc(Cl)cc1)=N[C@@H](CC(=O)N1CCC3(CCN(CC4CCN(c5ccc6c(c5)CN(C5CCC(=O)NC5=O)C6=O)CC4)CC3)CC1)c1nnc(C)n1-2` (stereo in doubt; 3P) [listing 1 of 2 here], the Emax in test [2] turned out to be 80%.

`Cc1sc2c(c1C)C(c1ccc(Cl)cc1)=N[C@@H](CC(=O)N1CCC3(CCN(CC4CCN(c5ccc6c(c5)CN(C5CCC(=O)NC5=O)C6=O)CC4)CC3)CC1)c1nnc(C)n1-2` (stereo in doubt; 3P) [listing 2 of 2 here]: in test [1], the pDC50 worked out at 9.1.
